Test results: PMC6264549, “Synthesis and Biological Evaluation of 3-Substituted-indolin-2-one Derivatives Containing Chloropyrrole Moieties” (Molecules, 2011)

How the values were obtained:
VEGFR2 tyrosine kinase = VEGFR2 tyrosine kinase (Homo sapiens, UniProt P35968); test: VEGFR2 inhibition assay (ELISA); type: biochemical; details: 5.0 µM ATP, Poly (Glu, Tyr)4:1 substrate, read-out: IC50 ± SD VEGFR2
Description: Seven compounds in the 14a–r series with low IC50 values on the tumor cell lines were evaluated for their inhibition of VEGFR2 using an enzyme-linked immunosorbent assay (ELISA), and the data are summarized in Table 2.
The VEGFR2 inhibition assay was performed by enzyme-linked immunosorbent assay (ELISA) in 96-well plates pre-coated with 2.5 µg/well Poly (Glu, Tyr)4:1 as a substrate. Each well was treated with 90 µL of 5.0 µM ATP (Amresco) solution and 10 µL of one of the seven compounds at varying concentrations, which were diluted in reaction buffer (50 mM HEPES pH 7.4, 20 mM MgCl2, 0.1 mM Na3VO4, 1 mM DTT). […] The reaction was initiated by adding 1 µL/well of VEGFR2 tyrosine kinase. After incubation for 1 h at 37 °C, the plates were washed three times with phosphate buffered saline containing 0.1% Tween-20 (T-PBS). Next, anti-phosphotyrosine (PY99; 1:1,000 dilution, 100 μL/well) antibody was added. After 1 h incubation at room temperature, the plates were washed three times, and goat anti-mouse IgG horseradish peroxidase (100 μL/well of 1:2,000 dilution) diluted in T-PBS was added. The plates were reincubated at room temperature for 1 h, and washed as before. Finally, color development solution (0.03% H2O2 and 2 mg/mL o-phenylenediamine in 0.1 M citrate buffer, pH 5.5, 100 µL/well) was added and the plates were incubated at room temperature until color emerged. The reaction was terminated by the addition of 2 M H2SO4 (50 µL/well), and A492 was measured using a tunable wavelength microplate reader (Molecular Devices SPECTRAMAX190). The inhibition rate was calculated using the equation: [1 − (A492/A492 control)] × 100%.

hERG potassium currents = hERG potassium currents (Homo sapiens, UniProt Q12809); test: Inhibition of hERG potassium currents in HEK239 cells (cardiotoxicity)
oral epithelial (KB) = test: MTT cell growth inhibition assay, KB; type: cell-based; details: Homo sapiens, 48 h, KB cells, two days
Description: (§1) The antitumor activities of 14a-r were evaluated in vitro on four tumor cell lines, including non-small cell lung cancer (A549), oral epithelial (KB), melanoma (K111) and large cell lung cancer cell lines (NCI-H460) by the MTT assay, and the results are summarized in Table 1.
(§2) Non-small cell lung cancer (A549), oral epithelial (KB), large cell lung cancer (NCI-H460) and melanoma cell lines (K111) were cultured in Dulbecco’s modified Eagle medium (GIBCO) containing 10% (v/v) inactivated newborn calf serum (Boren Bio-Pharmaceutical Co., Ltd.: Guangzhou, China), […] L-glutamine (SANGON), […] penicillin, 100 µg/mL streptomycin. Cells were grown in a 5% CO2 incubator at 37 °C.
(§3) The antitumor activities were determined by the MTT assay. Cells (2 × 10^3 cells/well) were seeded in 96-well plates. After incubation overnight, each compound, which was dissolved in dimethylsulfoxide (DMSO) and diluted with phosphate buffer solution (PBS), was added to each well and the cells were cultured for another two days at 37 °C. 20 μL (5 mg/mL) MTT solution was added to per well and the culture continued for another 3–4 h. The medium was removed and 100 μL DMSO was added to dissolve formazan crystals. Absorbance was measured at 492 nm using an ELISA reader (Thermo). The antitumor activities were expressed as IC50.

melanoma (K111) = test: MTT cell growth inhibition assay, K111; type: cell-based; details: 48 h, K111 cells, two days, read-out: IC50 ± SD K111
Description: as §1, §2, §3

[1] = tested on: non-small cell lung cancer (A549); test: MTT cell growth inhibition assay, A549; type: cell-based; details: Homo sapiens, 48 h, A549 cells, two days, read-out: IC50 ± SD A549
Description: as §1, §2, §3

[2] = tested on: large cell lung cancer cell lines (NCI-H460); test: MTT cell growth inhibition assay, NCI-H460; type: cell-based; details: Homo sapiens, 48 h, NCI-H460 cells, two days, read-out: IC50 ± SD NCI-H460
Description: as §1, §2, §3

[3] = sunitinib-treated patients, pivotal phase III metastatic renal cell carcinoma trial; cited from earlier work

Sequence of VEGFR2 tyrosine kinase (P35968 20-1356): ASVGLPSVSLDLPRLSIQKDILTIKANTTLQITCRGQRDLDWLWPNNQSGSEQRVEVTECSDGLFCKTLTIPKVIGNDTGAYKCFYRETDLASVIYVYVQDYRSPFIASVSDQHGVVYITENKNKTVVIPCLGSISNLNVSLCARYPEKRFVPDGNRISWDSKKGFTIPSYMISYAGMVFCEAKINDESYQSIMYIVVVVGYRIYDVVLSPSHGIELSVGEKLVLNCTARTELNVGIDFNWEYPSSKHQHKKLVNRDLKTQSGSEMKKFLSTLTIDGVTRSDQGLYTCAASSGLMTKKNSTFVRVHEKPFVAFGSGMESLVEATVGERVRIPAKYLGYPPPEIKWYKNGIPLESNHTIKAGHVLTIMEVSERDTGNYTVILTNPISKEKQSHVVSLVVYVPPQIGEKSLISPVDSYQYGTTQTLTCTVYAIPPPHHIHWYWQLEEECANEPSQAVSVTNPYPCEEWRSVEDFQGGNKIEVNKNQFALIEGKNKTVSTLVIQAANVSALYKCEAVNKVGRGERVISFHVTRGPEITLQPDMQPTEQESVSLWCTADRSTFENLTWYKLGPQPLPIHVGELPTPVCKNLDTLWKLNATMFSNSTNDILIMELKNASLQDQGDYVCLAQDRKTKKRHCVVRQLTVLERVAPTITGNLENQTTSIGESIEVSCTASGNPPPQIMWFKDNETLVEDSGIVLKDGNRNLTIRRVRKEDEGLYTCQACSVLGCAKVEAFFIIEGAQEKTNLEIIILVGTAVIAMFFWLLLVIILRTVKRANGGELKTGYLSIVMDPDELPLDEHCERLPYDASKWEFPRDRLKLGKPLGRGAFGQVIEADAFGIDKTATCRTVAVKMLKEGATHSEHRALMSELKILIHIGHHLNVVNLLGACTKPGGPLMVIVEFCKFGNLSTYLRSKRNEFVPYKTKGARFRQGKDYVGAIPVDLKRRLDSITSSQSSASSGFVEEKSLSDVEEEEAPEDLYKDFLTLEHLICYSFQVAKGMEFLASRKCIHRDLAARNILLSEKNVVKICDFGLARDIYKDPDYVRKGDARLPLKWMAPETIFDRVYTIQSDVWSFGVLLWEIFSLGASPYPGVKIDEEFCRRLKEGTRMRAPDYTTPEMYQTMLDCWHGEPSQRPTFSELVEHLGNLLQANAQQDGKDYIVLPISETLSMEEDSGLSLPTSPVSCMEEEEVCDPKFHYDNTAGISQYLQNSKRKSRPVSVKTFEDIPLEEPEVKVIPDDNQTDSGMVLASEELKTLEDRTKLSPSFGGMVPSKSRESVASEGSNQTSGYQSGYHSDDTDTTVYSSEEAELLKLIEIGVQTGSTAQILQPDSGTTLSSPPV
Sequence of hERG potassium currents (Q12809 whole entry): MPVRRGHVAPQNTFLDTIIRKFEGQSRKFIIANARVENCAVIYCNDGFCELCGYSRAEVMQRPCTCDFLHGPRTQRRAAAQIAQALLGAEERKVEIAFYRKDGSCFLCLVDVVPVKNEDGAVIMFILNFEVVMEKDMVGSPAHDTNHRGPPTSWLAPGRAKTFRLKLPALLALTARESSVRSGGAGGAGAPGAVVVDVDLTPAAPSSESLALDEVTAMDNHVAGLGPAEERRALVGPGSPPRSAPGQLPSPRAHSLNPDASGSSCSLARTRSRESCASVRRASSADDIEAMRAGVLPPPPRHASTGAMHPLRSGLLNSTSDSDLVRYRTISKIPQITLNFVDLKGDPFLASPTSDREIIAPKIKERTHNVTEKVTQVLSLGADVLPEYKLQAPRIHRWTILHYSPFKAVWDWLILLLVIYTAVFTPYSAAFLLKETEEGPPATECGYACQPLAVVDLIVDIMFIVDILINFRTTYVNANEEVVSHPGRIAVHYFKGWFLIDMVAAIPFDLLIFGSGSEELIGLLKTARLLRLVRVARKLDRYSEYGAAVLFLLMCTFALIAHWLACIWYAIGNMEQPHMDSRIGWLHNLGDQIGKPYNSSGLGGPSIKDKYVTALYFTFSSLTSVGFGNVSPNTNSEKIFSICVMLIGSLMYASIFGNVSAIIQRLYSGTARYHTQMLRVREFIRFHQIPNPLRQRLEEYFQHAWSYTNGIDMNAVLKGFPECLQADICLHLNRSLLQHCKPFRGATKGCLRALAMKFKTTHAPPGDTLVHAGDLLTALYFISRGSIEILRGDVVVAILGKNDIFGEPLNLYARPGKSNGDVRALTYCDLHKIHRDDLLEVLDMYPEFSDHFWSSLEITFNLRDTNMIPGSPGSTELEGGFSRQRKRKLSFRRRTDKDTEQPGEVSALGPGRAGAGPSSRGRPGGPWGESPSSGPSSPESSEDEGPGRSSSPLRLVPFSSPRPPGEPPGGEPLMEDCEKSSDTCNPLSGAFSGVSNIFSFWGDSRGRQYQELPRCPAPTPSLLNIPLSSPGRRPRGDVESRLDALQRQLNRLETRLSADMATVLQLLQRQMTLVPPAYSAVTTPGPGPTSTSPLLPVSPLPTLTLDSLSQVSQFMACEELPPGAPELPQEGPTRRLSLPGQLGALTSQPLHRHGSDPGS

Compound: CCN(CC)CCNC(=O)c1c(C)[nH]c(/C=C2\C(=O)Nc3ccc(F)cc32)c1Cl [Compound 14h, (Z)-4-Chloro-N-(2-(diethylamino)ethyl)-5-((5-fluoro-2-oxoindolin-3-ylidene)methyl)-2-methyl-1H-pyrrole-3-carboxamide]
- IC50 (VEGFR2 tyrosine kinase): 6.8 ± 0.8 nM
- IC50 (hERG potassium currents): 452 nM
- IC50 (oral epithelial (KB)): 1250 ± 100 nM
- IC50 (melanoma (K111)): 1790 ± 120 nM
- IC50 [1]: 1870 ± 260 nM
- IC50 [2]: 32100 ± 3830 nM
- melting point: 245.6 to 246.9 °C

Compound: CCN(CC)CCNC(=O)c1c(C)[nH]c(/C=C2\C(=O)Nc3ccc(F)cc32)c1C [Sunitinib, sunitinib, reference compound]
- patients who experienced a decline in LVEF to below normal [3]: 21%
- IC50 (oral epithelial (KB)): 2600 ± 180 nM
- IC50 (melanoma (K111)): 3830 ± 430 nM
- IC50 [1]: 2930 ± 250 nM
- IC50 [2]: 4790 ± 620 nM
